What was measured:
[1] = biological target: T1, Glycogen phosphorylase, muscle form (Oryctolagus cuniculus, UniProt P00489); assay: Inhibition of rabbit muscle glycogen phosphorylase inactive form b
T1 sequence (P00489 whole entry): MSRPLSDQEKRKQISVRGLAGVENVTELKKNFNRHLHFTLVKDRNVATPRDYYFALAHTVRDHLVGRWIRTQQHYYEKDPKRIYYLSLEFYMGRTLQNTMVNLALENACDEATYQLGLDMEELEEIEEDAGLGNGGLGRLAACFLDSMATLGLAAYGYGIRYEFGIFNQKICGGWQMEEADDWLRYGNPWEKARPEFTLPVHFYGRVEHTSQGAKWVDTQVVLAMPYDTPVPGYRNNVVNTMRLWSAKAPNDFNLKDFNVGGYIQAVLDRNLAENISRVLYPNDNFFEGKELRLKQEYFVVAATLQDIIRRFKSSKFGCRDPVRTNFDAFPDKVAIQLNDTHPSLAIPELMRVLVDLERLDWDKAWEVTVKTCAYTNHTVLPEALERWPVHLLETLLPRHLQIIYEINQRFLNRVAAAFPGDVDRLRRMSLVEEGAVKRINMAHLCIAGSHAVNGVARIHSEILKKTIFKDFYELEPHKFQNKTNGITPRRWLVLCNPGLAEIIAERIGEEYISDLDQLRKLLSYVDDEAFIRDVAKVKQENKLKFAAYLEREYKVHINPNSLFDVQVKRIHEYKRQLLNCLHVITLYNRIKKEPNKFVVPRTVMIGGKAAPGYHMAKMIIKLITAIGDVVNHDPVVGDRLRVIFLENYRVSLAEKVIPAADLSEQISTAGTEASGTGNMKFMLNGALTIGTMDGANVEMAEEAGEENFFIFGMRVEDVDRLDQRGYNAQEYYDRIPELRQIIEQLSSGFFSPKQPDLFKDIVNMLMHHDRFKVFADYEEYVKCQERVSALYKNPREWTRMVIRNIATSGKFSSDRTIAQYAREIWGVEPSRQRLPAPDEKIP

[2] = Dissociation constant, pKa of the compound; assay type: physicochemical

Ki [1] [µM]	pKa [2]	SMILES
6.1		O=c1ccn([C@@H]2O[C@H](CO)[C@@H](O)[C@H](O)[C@H]2O)c(=O)[nH]1
7.7		Nc1ccn([C@@H]2O[C@H](CO)[C@@H](O)[C@H](O)[C@H]2O)c(=O)n1
	7.5	O=c1[nH]c(=O)n([C@@H]2O[C@H](CO)C(O)[C@H](F)C2O)cc1F (stereo partly drawn)
